According to ChEMBL document CHEMBL2380242, “Discovery of novel orally bioavailable GPR40 agonists” (Bioorg Med Chem Lett, 2013):

Biological target: T1, Free fatty acid receptor 1 (Homo sapiens, UniProt O14842)
Experiment: Agonist activity at human GPR40 transfected in CHO cells by calcium flux assay relative to TAK-875
Type: functional, cell-based

T1 sequence (O14842 whole entry): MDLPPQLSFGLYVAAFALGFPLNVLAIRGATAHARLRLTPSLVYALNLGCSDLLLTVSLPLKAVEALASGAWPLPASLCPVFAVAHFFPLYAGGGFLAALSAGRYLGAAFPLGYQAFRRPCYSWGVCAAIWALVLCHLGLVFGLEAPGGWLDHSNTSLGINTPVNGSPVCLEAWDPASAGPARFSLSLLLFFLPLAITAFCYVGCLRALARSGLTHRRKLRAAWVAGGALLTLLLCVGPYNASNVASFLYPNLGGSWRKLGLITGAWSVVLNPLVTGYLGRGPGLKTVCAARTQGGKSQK

Row | SMILES | Emax
1 | CS(=O)(=O)CCCOc1ccc(-c2cccc([C@@H]3COc4cc5c(cc4O3)OC[C@H]5CC(=O)O)c2)c(Cl)c1 | 89%
2 | CS(=O)(=O)CCCOc1ccc(-c2cccc([C@H]3COc4cc5c(cc4O3)OC[C@H]5CC(=O)O)c2)c(Cl)c1 | 71%
3 | O=C(O)C[C@@H]1COc2cc3c(cc21)OCC(c1cc(F)cc(C(F)(F)F)c1)O3 (stereo partly drawn) | 79%
4 | O=C(O)C[C@@H]1COc2cc3c(cc21)OC[C@H](c1cccc(-c2ccccc2Cl)c1)O3 (mixture of isomers) | 97%
5 | Cc1cccc(C)c1-c1cccc([C@@H]2COc3cc4c(cc3O2)OC[C@H]4CC(=O)O)c1 | 85%
6 | Cc1cc(C)c(-c2cccc(C3COc4cc5c(cc4O3)OC[C@H]5CC(=O)O)c2)c(C)c1 (stereo partly drawn) | 103%

Now from value to compound:

Row | Emax | SMILES
7 | 76% | Cc1ccccc1-c1cccc([C@@H]2COc3cc4c(cc3O2)OC[C@H]4CC(=O)O)c1
8 | 72% | Cc1cccc(C)c1-c1cccc([C@H]2COc3cc4c(cc3O2)OC[C@H]4CC(=O)O)c1
9 | 66% | O=C(O)C[C@@H]1COc2cc3c(cc21)OCC(c1cccc(C2CC2)c1)O3 (stereo partly drawn)

Biological target: T1, Free fatty acid receptor 1
Experiment: Agonist activity at human GPR40 transfected in CHO cells by calcium flux assay
Type: functional, cell-based

Row | SMILES | EC50
10 | CS(=O)(=O)CCCOc1ccc(-c2cccc([C@@H]3COc4cc5c(cc4O3)OC[C@H]5CC(=O)O)c2)c(Cl)c1 | 94.8 nM
11 | CS(=O)(=O)CCCOc1ccc(-c2cccc([C@H]3COc4cc5c(cc4O3)OC[C@H]5CC(=O)O)c2)c(Cl)c1 | 145 nM
12 | O=C(O)C[C@@H]1COc2cc3c(cc21)OCC(c1cc(F)cc(C(F)(F)F)c1)O3 (stereo partly drawn) | 63.7 nM
13 | O=C(O)C[C@@H]1COc2cc3c(cc21)OC[C@H](c1cccc(-c2ccccc2Cl)c1)O3 (mixture of isomers) | 56.7 nM
14 | Cc1cccc(C)c1-c1cccc([C@@H]2COc3cc4c(cc3O2)OC[C@H]4CC(=O)O)c1 | 52.9 nM
15 | Cc1cc(C)c(-c2cccc(C3COc4cc5c(cc4O3)OC[C@H]5CC(=O)O)c2)c(C)c1 (stereo partly drawn) | 61.6 nM

Compounds with a lower EC50, results first:

Row | EC50 | SMILES
16 | 39.3 nM | Cc1ccccc1-c1cccc([C@@H]2COc3cc4c(cc3O2)OC[C@H]4CC(=O)O)c1
17 | 30.1 nM | Cc1cccc(C)c1-c1cccc([C@H]2COc3cc4c(cc3O2)OC[C@H]4CC(=O)O)c1
18 | 36.4 nM | O=C(O)C[C@@H]1COc2cc3c(cc21)OCC(c1cccc(C2CC2)c1)O3 (stereo partly drawn)
